Holding throughout (format): in vivo
Common to all, as to conditions: 1000 g/ha, after 12 days

The test system of experiment [1] is STEME. The experiment is described as follows: Biological efficacy, post-emergence glasshouse test (Table 2). How it is done:
(§1) Seeds of a variety of test species were shown in unsterilised compost in small pots. After cultivation for one day (pre-emergence) or seven days (post-emergence) in controlled conditions in the glasshouse (at 24/16° C., day/night; 14 hours light; 65% humidity) the plants were sprayed with 1 mg of the active ingredient, formulated in 466 μl of a acetone/water/Tween 20 (49.75:49.75:0.5) solution, which is equivalent to 1000 g/ha. Once the foliage was dry, the pots were kept in the glasshouse (at 24/16° C., day/night; 14 hours light; 65% humidity), and were watered twice daily. After 12 days the test was evaluated and scored (100=total damage to plant, 0=no damage to plant).

Experiment [2] deals with DIGSA. Described as above. How it is done: as §1
The subject of experiment [3] is AMARE. The experiment is described as above. How it is done: as §1
Experiment [4] relates to LOLPE. The experiment is described as above. How it is done: as §1
In experiment [5] the test system is STEME. The experiment is described as follows: Biological efficacy, pre-emergence glasshouse test (Table 2). How it is done: as §1
Experiment [6] concerns DIGSA. Described as above. How it is done: as §1
For experiment [7], the system named is AMARE. The experiment is described as above. How it is done:
as §1

For experiment [8], the system named is LOLPE. The experiment is described as above. How it is done:
as §1

Take `C#Cc1c(Cl)cccc1C(F)(F)C(=O)O` [Compound 1-291, 2-(3-Chloro-2-ethynyl-phenyl)-2,2-difluoro-acetic acid]: the “score (100=total damage to plant, 0=no damage to plant)” value with STEME [1] came out at 80; in the experiment with DIGSA [2] it was 70; in the experiment with AMARE [3], 100; with LOLPE [4] it was 0; in the experiment on STEME [5], 100; in the experiment on DIGSA [6] it was 90. For the same compound, the figures for the “score (100=total damage to plant, 0=no damage to plant)” value in the experiment on AMARE [7] and with LOLPE [8] were 90 and 80, respectively.

On to `CCc1c(Cl)cccc1C(F)(F)C(=O)O` [Compound 1-275, 2-(3-Chloro-2-ethyl-phenyl)-2,2-difluoro-acetic acid], for which the “score (100=total damage to plant, 0=no damage to plant)” value in the experiment on STEME [1] was determined as 80; in the experiment on DIGSA [2], 30; in the experiment with AMARE [3], 90; in the experiment on LOLPE [4], 0; in the experiment on STEME [5] it was 100; in the experiment with DIGSA [6], 80. Further, the “score (100=total damage to plant, 0=no damage to plant)” value with AMARE [7] stood at 100; with LOLPE [8], 60.

Take `COc1ccc(C(F)(F)C(=O)O)cc1` [Compound 1-2]: the “score (100=total damage to plant, 0=no damage to plant)” value in the experiment with STEME [1] was found to be 50; with DIGSA [2] it was 0; in the experiment on AMARE [3], 40; in the experiment on LOLPE [4], 0; in the experiment with STEME [5], 0; in the experiment on DIGSA [6], 0. The “score (100=total damage to plant, 0=no damage to plant)” value with AMARE [7] and with LOLPE [8] was 0 in each case.

As to `CCOc1ccccc1C(F)(F)C(=O)O` [Compound 1-328], the “score (100=total damage to plant, 0=no damage to plant)” value in the experiment on STEME [1] is listed as 60; with DIGSA [2] it was 0; in the experiment on AMARE [3], 80; in the experiment on LOLPE [4] it was 0; with STEME [5] it was 40; in the experiment on DIGSA [6] it was 0. Moreover, the “score (100=total damage to plant, 0=no damage to plant)” value with AMARE [7] was found to be 50; in the experiment on LOLPE [8], 0.

In the case of `COc1cc(C(F)(F)C(=O)O)ccc1C` [Compound 1-7], the “score (100=total damage to plant, 0=no damage to plant)” value with STEME [1] was 70; in the experiment on DIGSA [2], 0; in the experiment with AMARE [3], 40; in the experiment on LOLPE [4] it was 0; in the experiment on STEME [5], 30; in the experiment on DIGSA [6], 0. Moreover, the “score (100=total damage to plant, 0=no damage to plant)” value in the experiment on AMARE [7] and with LOLPE [8] was 0 throughout.

Turning to `COc1ccc(F)cc1C(F)(F)C(=O)O` [Compound 1-304], the “score (100=total damage to plant, 0=no damage to plant)” value is recorded as 20 with STEME [1]; 20 with DIGSA [2]; 70 in the experiment on AMARE [3]; 20 in the experiment with LOLPE [4]; 0 in the experiment with STEME [5]; 0 in the experiment with DIGSA [6]. The “score (100=total damage to plant, 0=no damage to plant)” value in the experiment with AMARE [7] and with LOLPE [8] was 0 throughout.

For the compound `CC(C)Oc1ccccc1C(F)(F)C(=O)O` [Compound 1-341], the “score (100=total damage to plant, 0=no damage to plant)” value with STEME [1] came to 60; with DIGSA [2], 20; in the experiment on AMARE [3] it was 80; with LOLPE [4], 10; with STEME [5], 30; in the experiment on DIGSA [6] it was 0. Moreover, the “score (100=total damage to plant, 0=no damage to plant)” value in the experiment with AMARE [7] turned out to be 30; with LOLPE [8], 10.

`O=C(O)C(F)(F)c1ccc(OC(F)F)cc1F` [Compound 1-32]: the “score (100=total damage to plant, 0=no damage to plant)” value in the experiment on STEME [1] was 40; with DIGSA [2], 0; in the experiment with AMARE [3] it was 30; with LOLPE [4], 0; with STEME [5] it was 0; in the experiment with DIGSA [6], 0. The “score (100=total damage to plant, 0=no damage to plant)” value in the experiment with AMARE [7] and with LOLPE [8] was 0 in each case.

Take `CC(C)(C)c1ccc(C(F)(F)C(=O)O)cc1` [Compound 1-1]: the “score (100=total damage to plant, 0=no damage to plant)” value came out at 0 with STEME [1]; 0 in the experiment on DIGSA [2]; 40 in the experiment on AMARE [3]; 0 with LOLPE [4]; 20 with STEME [5]; 0 in the experiment with DIGSA [6]. Besides, the “score (100=total damage to plant, 0=no damage to plant)” value in the experiment with AMARE [7] and in the experiment with LOLPE [8] was 0 throughout.

On to `Nc1cccc(C(F)(F)C(=O)O)c1` [Compound 1-8, 2-(3-Aminophenyl)-2,2-difluoro-acetic acid], for which the “score (100=total damage to plant, 0=no damage to plant)” value is recorded as 10 with STEME [1]; 0 with DIGSA [2]; 10 with AMARE [3]; 0 in the experiment on LOLPE [4]; 0 in the experiment on STEME [5]; 0 in the experiment on DIGSA [6]. Further, the “score (100=total damage to plant, 0=no damage to plant)” value in the experiment with AMARE [7] and with LOLPE [8] was 0 each time.

With `CCc1ccccc1C(F)(F)C(=O)O` [Compound 1-263], the “score (100=total damage to plant, 0=no damage to plant)” value is 50 in the experiment on STEME [1]; 0 in the experiment with DIGSA [2]; 50 in the experiment with AMARE [3]; 0 with LOLPE [4]; 0 in the experiment on STEME [5]; 0 in the experiment on DIGSA [6]. In addition, the “score (100=total damage to plant, 0=no damage to plant)” value with AMARE [7] was 40; in the experiment with LOLPE [8], 0.

In the case of `COc1ccc(Cl)cc1C(F)(F)C(=O)O` [Compound 1-305], the “score (100=total damage to plant, 0=no damage to plant)” value with STEME [1] was 0; in the experiment with DIGSA [2], 0; in the experiment on AMARE [3], 50; in the experiment with LOLPE [4], 0; in the experiment with STEME [5], 0; in the experiment on DIGSA [6] it was 0. Besides, the “score (100=total damage to plant, 0=no damage to plant)” value with AMARE [7] and in the experiment on LOLPE [8] was 0 each time.

`O=C(O)C(F)(F)c1ccc(OC(F)(F)F)c(Br)c1` [Compound 1-20]: the “score (100=total damage to plant, 0=no damage to plant)” value with STEME [1] turned out to be 0; with DIGSA [2], 30; in the experiment on AMARE [3] it was 70; in the experiment with LOLPE [4] it was 0; in the experiment on STEME [5], 0; in the experiment on DIGSA [6] it was 0. The “score (100=total damage to plant, 0=no damage to plant)” value is recorded as 30 in the experiment on AMARE [7] and 0 with LOLPE [8].

Values taken from patent US20240251792A1, “WEED CONTROL METHOD” (SYNGENTA CROP PROTECTION AG, priority 2021, published 2024).
